Values quoted from earlier work in US20130309325A1, “COMPOSITION AND METHOD FOR PROMOTING JOINT AND BONE HEALTH” (VITAL ANIMAL HEALTH, LLC, priority 2012, published 2013).

Tested on: young racing quarter horses
[1] = horses with increased plasma silicon concentrations

## silicon
[1]
  average race times: faster average race times
  distance covered before injury: covered more distance before injury
  strides completed before injury: completed more strides before injury
Supplemental silicon, young racing quarter horses
  incidence of bone related injuries: decreased the incidence of bone related injuries
